Data reported in patent publication US20240165196A1, “Beta-Lactamase Inhibitors” (VIB VZW, priority 2021, published 2024).

How the values were obtained:
[1] = tested on: SHV beta-lactamase in strain expressing SHV-154; assay: western blot of inclusion body (IB) fraction for SHV; format: cell-based, E. coli; conditions: 12 μM peptide in PBS, 120 min
Method: (§1) FIGS. 3A-3P. […] Three replicates are shown for each condition. […] A single representative image is shown. […] Three replicates are shown for each condition. (FIG. 3E) [Left] […] [Middle] […] [Right] […] A single representative image is shown. […] A single representative image is shown. […] A single representative image is shown. […] A single representative blot is shown. […] 106 cells were analysed for the plot.
(§2) Moreover, we confirmed the presence of the protein in the correct band using mass spectrometry proteomics. We repeated this with a strain expressing SHV-154, blotting with a polyclonal rabbit antibody raised against the recombinant SHV enzyme described above (FIG. 3K).
(§3) The overnight culture of bacteria was centrifuged for 30 min at 4,000×g and cells were washed with physiological water (NaCl 0.9%). Bacterial cells were treated by peptide at the appropriate concentration for at least 2 h at 37 C. The bacterial pellets were washed with 10 mL buffer A (50 mM HEPES, pH 7.5, 300 mM NaCl, 5 mM β-mercaptoethanol, 1.0 mM EDTA) and centrifuged at 4° C. for 30 min at 4,000×g. The supernatant was discarded and 20 mL of buffer B (buffer A plus 1 tablet of the protease and phosphatase Inhibitor Cocktail (ab201119, Abcam, UK) was added to the bacterial pellet. In order to break the cells, a High-Pressure Homogenizer (Glen Creston Ltd) with the pressure set to 20,000-25,000 psi was used on ice, and in addition, the suspensions were sonicated (Branson Digital sonifier 50/60 Hz) on ice with alternating 2 min cycle (15 pulses at 50% power with 30 s pauses on ice, until completing 2 min total sonication time). The lysed cells were centrifuged at 4° C. for 30 min at 11,000×g. The precipitated fraction was afterward re-suspended with 10 mL buffer D (buffer A plus 0.8% (V/V) Triton X-100, 0.1% sodium deoxycholate) and the suspension was sonicated to ensure the pellet is completely dissolved. This step was repeated three times. Centrifugation was performed at 4° C. for 30 min at 11,000×g. Finally, to solubilize IBs, the pellet was suspended in 500 ul of buffer F (50 mM HEPES, pH 7.5, 8.0 M urea) of precipitated fraction.

[2] = tested on: E. coli SHV-11; assay: checkerboard assay (FICI), peptide versus penicillin G; format: cell-based; conditions: strain with SHV-11; FICI below 0.5 = synergy
Source text: (§4) FIGS. 2A-2M. (FIG. 2A) TEM mutations and their effects on stability (total energy) as predicted by FoldX. […] Dashed line indicates a total energy difference of 0.5 kcal/mol, the FoldX cut-off above which mutations are considered to be destabilizing. (FIG. 2B) Barplot mapping mutations in (FIG. 2A) to the TEM sequence and indicating occurrence. […] The bar heights correspond to the number of times a mutation occurs across different TEM variants (right-hand y-axis). The color coding is identical to that in (FIG. 2A). Red line indicates the TANGO scores (indicated on the left-hand y-axis), with peaks corresponding to APRs. (FIG. 2C) Mapping of mutations in (FIG. 2A) and (FIG. 2B) to the TEM structure (pdb 1xpb). Protein surface is shown in gray, color coding of mutations is identical to (FIG. 2A) and (FIG. 2B). (FIGS. 2D, 2E, and 2F) Temperature-dependent evolution of the Right-Angle Light Scattering (RALS) intensity during a temperature ramp, similar as in FIG. 1F for key mutants of TEM1, namely TEM-10 (FIG. 2D), TEM-30 (FIG. 2E) and TEM-155 (FIG. 2F). Experiments were shown in triplicate, single repeat is shown. (FIG. 2G) Schematic representation of the structure of the peptides. APR—Aggregation Prone Region, R—Arginine. (FIG. 2H) Ribbon representation of the superposition of the crystal structures of TEM (green, pdb id 1bt5) and SHV (blue, pdb id 1shv). The catalytic site of the beta-lactamase activity is indicated and location of APR3 is shown in red. (FIG. 2I) TANGO aggregation score and alignment of APR3 in TEM and SHV. (FIG. 2J) Fractional Inhibitory Concentration Index determination of 5 peptides versus penicillin on E. coli TEM-104. […] FICI values below 0.5 indicate synergy. Values between 0.5 and 1.0 indicate additivity and values greater than 1 indicate indifference between the combined substances. (FIG. 2K) Same as J for E. coli SHV-11. (FIG. 2L) Same as J for a kanamycin resistant E. coli strain. (FIG. 2M) FICI values for the TEM3.2 peptide on a range of E. coli strains.
(§5) Moreover, the core sequence of peptide TEM3.0 also occurs in the structurally related SHV β-lactamase ([…]). Although the C-terminal extension residues H and N have been replaced with physicochemically similar R and Q, respectively (FIG. 2H). […] To quantify the synergy between these four peptides and penicillin G, we performed a so-called checkerboard assay, which allows to compare the activity of two test compounds co-incubated (here peptide and a beta-lactam antibiotic), to their individual activities in isolation. The result from the assay is quantified as the Fractional Inhibitory Concentration Index (FICI), and it is generally accepted that values below 0.5 indicate synergistic effects between the compounds. As a control, we generated a peptide using the same design, but based on a previously identified APR from the β-galactosidase enzyme (BGAL)^16 from E. coli (APR=SVIIWSL, peptide sequence=[…]) that has a MIC value>100 μg/mL on E. coli strain UZ_TEM104. We evaluated the synergy of the peptides with penicillin G in clinical E. coli isolates carrying the TEM ([…]) or SHV enzymes ([…]). […] As a further control, we also performed a checkerboard assay with an E. coli strain that was resistant to the aminoglycoside kanamycin and observed no synergy between this unrelated antibiotic and our peptides (FIG. 2L), in line with the notion that we are inhibiting a beta-lactamase but not the aminoglycoside degrading enzyme. […] The list of strains included some that harbored only TEM or SHV, but others contained additional Ambler Class A (CTX-M or […]) or Class B (VIM and NDM) beta-lactamases. […] In contrast, the presence of the NDM-type […], that does have a high affinity for Ampicillin and that is completely distinct in sequence and structure from TEM and SHV, seemed to completely prevent the effect of the peptide on the beta-lactam sensitivity of the strains in which it occurred (see also further). […]

[3] = tested on: E. coli TEM-104; assay: as above; format: cell-based; conditions: strain with TEM; FICI below 0.5 = synergy
Source text: as §4, §5

[4] = tested on: TEM beta-lactamase in E. coli UZ_TEM104; assay: western blot of inclusion body (IB) fraction for TEM; format: cell-based; conditions: 12 μM peptide in PBS, 120 min
Method: as §1, §2, §3

| Substance | accumulation of the SHV enzyme in inclusion bodies (western blot) [1] | synergy with penicillin G (FICI) [2] | synergy with penicillin G (FICI) [3] | enrichment of the TEM protein in inclusion bodies (western blot) [4] |
| --- | --- | --- | --- | --- |
| Ac-RLTAFLHNRRPRLTAFLHNRR-NH2 [TEM3.0] | not | not in a strain containing the SHV-11 enzyme | clear synergy | clear enrichment of the TEM protein in IBs |
| Ac-RLTAFLHNRRPRLTAFLRQRR-NH2 [TEM3.2] | accumulates in IBs | synergy | synergy | clear enrichment of the TEM protein in IBs |
